Tests used:
CAL-51 cells = assay: CAL-51 Cell Proliferation Assay; type: cell-based; conditions: for EC50: Homo sapiens, 120 hours incubation, 10-point dose response, 4-fold dilutions starting at 10 μM, Cell-Titer-Glo, read-out: CAL-51 Prolif EC50; for CAL-51 Prolif Ymin: minimal percent of DMSO control observed in the concentrations tested (Ymin-obs), 120 hours
Method in brief: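 EC50 comes from a four-parameter logistic fit of blank-corrected, DMSO-normalised CellTiter-Glo signal after 120 h growth (37 °C, 350 cells/well, RPMI complete medium). Compounds ran as 10-point 4-fold series starting at 10 μM, duplicate, 0.1% DMSO. Ymin-obs records the minimal percent of DMSO control observed.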

FAK = target: T1, FAK (Homo sapiens, UniProt Q05397); assay: FAK-HiBiT Degradation Assay; type: cell-based; conditions: for DC50: JHH-4-FAK-HiBiT clone d01 cells, two hours incubation, 10-point dose response, 3-fold dilution starting at 1 μM, Nano-Glo HiBiT luminescence, read-out: FAK HiBiT EC50; for FAK HiBiT Ymin: lower limit of the four parameter fit (value A), Ymax derived using DMSO control, JHH-4-FAK-HiBiT cells, two hours
T1 construct: homozygous knock-in of a HiBiT tag (Promega Corporation, Madison, WI) to the C-terminus of the FAK gene in its natural genomic locus; endogenous in cells; host or cells: JHH-4-FAK-HiBiT clone d01 (CRISPR-Cas9 knock-in at the endogenous locus)
T1 sequence (Q05397 whole entry): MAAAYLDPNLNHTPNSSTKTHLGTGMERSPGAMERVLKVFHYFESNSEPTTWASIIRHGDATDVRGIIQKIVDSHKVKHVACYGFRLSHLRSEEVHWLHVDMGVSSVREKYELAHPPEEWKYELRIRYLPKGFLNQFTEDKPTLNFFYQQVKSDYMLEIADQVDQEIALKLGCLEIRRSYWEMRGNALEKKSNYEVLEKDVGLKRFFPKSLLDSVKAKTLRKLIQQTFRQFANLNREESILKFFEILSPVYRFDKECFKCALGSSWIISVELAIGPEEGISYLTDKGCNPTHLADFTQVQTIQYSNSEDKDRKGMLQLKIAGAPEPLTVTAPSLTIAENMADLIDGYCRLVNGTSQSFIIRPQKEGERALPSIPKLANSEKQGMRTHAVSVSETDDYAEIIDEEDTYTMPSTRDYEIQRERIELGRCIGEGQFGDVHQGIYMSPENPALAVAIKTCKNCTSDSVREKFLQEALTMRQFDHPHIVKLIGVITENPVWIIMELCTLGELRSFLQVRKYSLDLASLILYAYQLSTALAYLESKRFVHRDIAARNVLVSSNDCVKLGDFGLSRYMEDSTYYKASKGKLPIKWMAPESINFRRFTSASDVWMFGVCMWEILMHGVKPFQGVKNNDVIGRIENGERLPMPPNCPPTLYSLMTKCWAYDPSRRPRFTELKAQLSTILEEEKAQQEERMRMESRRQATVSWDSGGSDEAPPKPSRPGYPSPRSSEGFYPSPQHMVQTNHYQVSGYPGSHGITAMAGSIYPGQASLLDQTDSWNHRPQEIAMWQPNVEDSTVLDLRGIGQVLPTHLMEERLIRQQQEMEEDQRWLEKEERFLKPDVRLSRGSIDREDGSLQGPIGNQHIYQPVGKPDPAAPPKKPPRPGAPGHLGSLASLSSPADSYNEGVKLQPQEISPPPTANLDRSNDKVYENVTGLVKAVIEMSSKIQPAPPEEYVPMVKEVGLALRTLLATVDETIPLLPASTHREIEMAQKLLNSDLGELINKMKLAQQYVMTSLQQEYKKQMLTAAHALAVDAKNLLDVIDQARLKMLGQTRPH
Method in brief: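 Degradation read out by HiBiT lytic luminescence after 2 h compound exposure (top concentration 1 μM, 3-fold, 10 points) in JHH-4 clone d01 bearing endogenous FAK-HiBiT knock-in. Four-parameter logistic fit gave EC50 and Ymin; DMSO wells defined Ymax.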

Row | Structure (SMILES) | EC50 (CAL-51 cells) | CAL-51 Prolif Ymin (CAL-51 cells) | DC50 (FAK) | FAK HiBiT Ymin (FAK)
1 | CCOc1ccc(-c2cc(N3CC(F)C3)nc3c2cnn3Cc2ccc3c(c2)CN([C@H]2CCC(=O)NC2=O)C3=O)c(C)c1 [Example 39, (3S)-3-(5-{[4-(4-ethoxy-2-methylphenyl)-6-(3-fluoroazetidin-1-yl)-1H-pyrazolo[3,4-b]pyridin-1-yl]methyl}-1-oxo-2,3-dihydro-1H-isoindol-2-yl)piperidine-2,6-dione] | 0.82 nM | 28.13 | 1.12 nM | 7.78
2 | CN(c1cc(-c2ncc(C(F)(F)F)cc2Cl)c2cnn(Cc3ccc4c(c3)CN(C3CCC(=O)NC3=O)C4=O)c2n1)C1CCOCC1 (centres unmarked) [Example 94, 3-[5-({4-[3-chloro-5-(trifluoromethyl)pyridin-2-yl]-6-[methyl(oxan-4-yl)amino]-1H-pyrazolo[3,4-b]pyridin-1-yl}methyl)-1-oxo-2,3-dihydro-1H-isoindol-2-yl]piperidine-2,6-dione] | 5.52 nM | 47.74 | 18.3 nM | 23.92
3 | N#Cc1cnc(-c2cc(N3CC[C@H](O)C3)nc3c2cnn3Cc2ccc3c(c2)CN([C@H]2CCC(=O)NC2=O)C3=O)c(F)c1 [Example 121, 6-[1-({2-[(3S)-2,6-dioxopiperidin-3-yl]-1-oxo-2,3-dihydro-1H-isoindol-5-yl}methyl)-6-[(3S)-3-hydroxypyrrolidin-1-yl]-1H-pyrazolo[3,4-b]pyridin-4-yl]-5-fluoropyridine-3-carbonitrile] | 1360 nM | 75.47 | 95.4 nM | 40.50
4 | O=C1CCC(N2Cc3cc(Cn4ncc5c(-c6ncc(C(F)(F)F)cc6Cl)cc(N[C@H]6CCOC6)nc54)ccc3C2=O)C(=O)N1 (stereo partly drawn) [Example 132, 3-[5-({4-[3-chloro-5-(trifluoromethyl)pyridin-2-yl]-6-{[(3S)-oxolan-3-yl]amino}-1H-pyrazolo[3,4-b]pyridin-1-yl}methyl)-1-oxo-2,3-dihydro-1H-isoindol-2-yl]piperidine-2,6-dione] | 0.1 nM | 89.52 | ≥ 1000 nM | 89.82
5 | O=C1CCC(N2Cc3cc(Cn4ncc5c(-c6ncc(C(F)(F)F)cc6Cl)cc(NC6CC6)nc54)ccc3C2=O)C(=O)N1 (centres unmarked) [Example 98, 3-[5-({4-[3-chloro-5-(trifluoromethyl)pyridin-2-yl]-6-(cyclopropyl-amino)-1H-pyrazolo[3,4-b]pyridin-1-yl}methyl)-1-oxo-2,3-dihydro-1H-isoindol-2-yl]piperidine-2,6-dione] | 3.66 nM | 39.93 | 24.4 nM | 32.32
6 | O=C1CCC(N2Cc3cc(Cn4ncc5c(-c6ncc(F)cc6Cl)cc(N6CC[C@@H](O)C6)nc54)ccc3C2=O)C(=O)N1 (stereo partly drawn) [Example 114, 3-(5-{[4-(3-chloro-5-fluoropyridin-2-yl)-6-[(3R)-3-hydroxypyrrolidin-1-yl]-1H-pyrazolo[3,4-b]pyridin-1-yl]methyl}-1-oxo-2,3-dihydro-1H-isoindol-2-yl)piperidine-2,6-dione] | 35 nM | 40.82 | 55.7 nM | 14.15
7 | O=C1CC[C@H](N2Cc3cc(Cn4ncc5c(-c6ncc(C(F)(F)F)cc6Cl)cc(N6CCC(O)C6)nc54)ccc3C2=O)C(=O)N1 (stereo in doubt) [Example 106, (3S)-3-[5-({4-[3-chloro-5-(trifluoromethyl)pyridin-2-yl]-6-[(3R)-3-hydroxypyrrolidin-1-yl]-1H-pyrazolo[3,4-b]pyridin-1-yl}methyl)-1-oxo-2,3-dihydro-1H-isoindol-2-yl]piperidine-2,6-dione] | 54.6 nM | 53.56 | 37.9 nM | 17.24
8 | O=C1CC[C@H](N2Cc3cc(Cn4ncc5c(-c6ncc(Cl)cc6F)cc(N6CC(F)C6)nc54)ccc3C2=O)C(=O)N1 [Example 47, (3S)-3-(5-{[4-(5-chloro-3-fluoropyridin-2-yl)-6-(3-fluoroazetidin-1-yl)-1H-pyrazolo[3,4-b]pyridin-1-yl]methyl}-1-oxo-2,3-dihydro-1H-isoindol-2-yl)piperidine-2,6-dione] | 1.96 nM | 39.85 | 1.8 nM | 17.06
9 | O=C1CCC(N2Cc3cc(Cn4ncc5c(-c6ncc(C(F)(F)F)cc6Cl)cc(N[C@@H]6CCOC6)nc54)ccc3C2=O)C(=O)N1 (stereo partly drawn) [Example 133, 3-[5-({4-[3-chloro-5-(trifluoromethyl)pyridin-2-yl]-6-{[(3R)-oxolan-3-yl]amino}-1H-pyrazolo[3,4-b]pyridin-1-yl}methyl)-1-oxo-2,3-dihydro-1H-isoindol-2-yl]piperidine-2,6-dione] | 23.3 nM | 84.63 | ≥ 1000 nM | 82.45
10 | CCOc1cnc(-c2cc(N3CC(F)C3)nc3c2cnn3Cc2ccc3c(c2)CN(C2CCC(=O)NC2=O)C3=O)c(CC)c1 (centres unmarked) [Example 74, 3-(5-{[4-(5-ethoxy-3-ethylpyridin-2-yl)-6-(3-fluoroazetidin-1-yl)-1H-pyrazolo[3,4-b]pyridin-1-yl]methyl}-1-oxo-2,3-dihydro-1H-isoindol-2-yl)piperidine-2,6-dione] | 4.11 nM | 34.11 | 6.88 nM | 8.00
11 | O=C1CC[C@H](N2Cc3cc(Cn4ncc5c(-c6ncc(C(F)(F)F)cc6Cl)cc(N6CCOCC6)nc54)ccc3C2=O)C(=O)N1 [Example 131, (3S)-3-[5-({4-[3-chloro-5-(trifluoromethyl)pyridin-2-yl]-6-(morpholin-4-yl)-1H-pyrazolo[3,4-b]pyridin-1-yl}methyl)-1-oxo-2,3-dihydro-1H-isoindol-2-yl]piperidine-2,6-dione] | 3.1 nM | 59.06 | ≥ 1000 nM | 92.07
12 | CN(c1cc(-c2ncc(C(F)(F)F)cc2Cl)c2cnn(Cc3ccc4c(c3)CN([C@H]3CCC(=O)NC3=O)C4=O)c2n1)[C@H]1C[C@](C)(O)C1 [Example 107, (3S)-3-[5-({4-[3-chloro-5-(trifluoromethyl)pyridin-2-yl]-6-{methyl[(1s,3r)-3-hydroxy-3-methylcyclobutyl]amino}-1H-pyrazolo[3,4-b]pyridin-1-yl}methyl)-1-oxo-2,3-dihydro-1H-isoindol-2-yl]piperidine-2,6-dione] | 8.44 nM | 44.59 | 38.3 nM | 18.14
13 | C[C@]1(O)CCN(c2nc3c(cnn3Cc3ccc4c(c3)CN([C@H]3CCC(=O)NC3=O)C4=O)c(-c3ncc(C(F)(F)F)cc3Cl)c2F)C1 [Example 140, (3S)-3-[5-({4-[3-chloro-5-(trifluoromethyl)pyridin-2-yl]-5-fluoro-6-[(3S)-3-hydroxy-3-methylpyrrolidin-1-yl]-1H-pyrazolo[3,4-b]pyridin-1-yl}methyl)-1-oxo-2,3-dihydro-1H-isoindol-2-yl]piperidine-2,6-dione] | 2.2 nM | 29.76 | 3.11 nM | 9.35
14 | O=C1CC[C@H](N2Cc3cc(Cn4ncc5c(-c6ccc(OCC(F)(F)F)cc6Cl)cc(N6CC(F)C6)nc54)ccc3C2=O)C(=O)N1 [Example 52, (3S)-3-[5-({4-[2-chloro-4-(2,2,2-trifluoroethoxy)phenyl]-6-(3-fluoroazetidin-1-yl)-1H-pyrazolo[3,4-b]pyridin-1-yl}methyl)-1-oxo-2,3-dihydro-1H-isoindol-2-yl]piperidine-2,6-dione] | 1.13 nM | 22.49 | 2.4 nM | 8.38
15 | O=C1CC[C@H](N2Cc3cc(Cn4ncc5c(-c6ccc(F)cc6F)cc(N6CC[C@H](O)C6)nc54)ccc3C2=O)C(=O)N1 [Example 95, (3S)-3-(5-{[4-(2,4-difluorophenyl)-6-[(3S)-3-hydroxypyrrolidin-1-yl]-1H-pyrazolo[3,4-b]pyridin-1-yl]methyl}-1-oxo-2,3-dihydro-1H-isoindol-2-yl)piperidine-2,6-dione] | 13.5 nM | 46.68 | 19.9 nM | 22.15
16 | O=C1CCC(N2Cc3cc(Cn4ncc5c(-c6ncc(C(F)(F)F)cc6F)cc(N6CC(F)C6)nc54)ccc3C2=O)C(=O)N1 (centres unmarked) [Example 55, 3-[5-({4-[3-fluoro-5-(trifluoromethyl)pyridin-2-yl]-6-(3-fluoroazetidin-1-yl)-1H-pyrazolo[3,4-b]pyridin-1-yl}methyl)-1-oxo-2,3-dihydro-1H-isoindol-2-yl]piperidine-2,6-dione] | 3.19 nM | 36.41 | 3.13 nM | 20.64
17 | O=C1CCC(N2Cc3cc(Cn4ncc5c(-c6ncc(C(F)(F)F)cc6Cl)cc(N6CC(F)C6)nc54)cc(F)c3C2=O)C(=O)N1 (centres unmarked) [Example 33, 3-[5-({4-[3-chloro-5-(trifluoromethyl)pyridin-2-yl]-6-(3-fluoroazetidin-1-yl)-1H-pyrazolo[3,4-b]pyridin-1-yl}methyl)-7-fluoro-1-oxo-2,3-dihydro-1H-isoindol-2-yl]piperidine-2,6-dione] | 0.51 nM | 26.78 | 0.91 nM | 5.36
